Where two headings read alike, the source gives them in different places.
Key:
[1] = tested on: murine bone marrow stern cells, colony-forming units/erythrocytes (CFU-E); assay: CFU-E assay, in vitro cytotoxicity / bone marrow toxicity; type: cell-based; conditions: for IC50: Mus musculus, Erythrocyte
Description: (§1) The cytostatic/cytotoxic compound Doxorubicin was also included as reference substance. All compounds were tested in 3-6 different experiments concentration dependently with,at least, doublicate or triplicate inclubations per concentration tested.
(§2) For assay conditions, please refer to description of Example 7.

[2] = tested on: murine bone marrow stern cells, colony-forming units/granulocytes-macrophages (CFU-GM); assay: CFU-GM assay, in vitro cytotoxicity / bone marrow toxicity; type: cell-based; conditions: for IC50: Mus musculus, in vitro
Description: as §1, §2

L 1210 leukemia = assay: Influence on the L 1210 leukemia in vivo: survival time; parameters: species or system mice
Description: Mice were inoculated with L 1210 leukemia cells on day 0 (n=10 animals/group) and w ere then treated once daily i.p. from day 0 (+1 h)-day +41 (6 weeks) with the weekly cycles indicated on FIGS. 1 and 2, respectively.

[3] = in vitro, mean ± SEM, Example 7, read-out: IC50 CFU-E
[4] = CFU-GM, mean ± SEM, Example 7, read-out: IC50 CFU-GM
[5] = in vitro, mean, Example 10, read-out: Bone marrow toxicity CFU-E, mean IC50
[6] = CFU-GM, mean, Example 10, read-out: Bone marrow toxicity CFU-GM, mean IC50
[7] = 5-FU-DMDOPE compared to 5-FU, table

| Compound | IC50 [1, 3] [ng/mL] | IC50 [2, 4] [ng/mL] | IC50 [1, 5] [nM] | IC50 [2, 6] [nM] | also measured |
| --- | --- | --- | --- | --- | --- |
| OC[C@H]1O[C@@H](n2cnc3c(S)ncnc32)[C@H](O)[C@@H]1O [6-Mercaptopurinriboside, reference compound] | 0.3 | 2.3 |  |  |  |
| CCCCCCCCCCCCSCC(COP(=O)(O)OC[C@H]1O[C@@H](n2cnc3c(S)ncnc32)[C@H](O)[C@@H]1O)OCCCCCCCCCC (stereo partly drawn) [Example 6-MPR-DMDOPE, (6-Mercaptopurine-9-β-D-ribofuranoside)-5'-phosphoric acid (3-dodecylmercapto-2-decyloxy) propyl ester] | 56 | 247 |  |  | tolerability by bone marrow stem cells ([1]; in vitro, CFU-E and CFU-GM, compared to Azathioprine, 6-MP, 6-Mercaptopurinriboside, Doxorubicin): much better tolerated by the bone marrow stern cells compared to all other compounds tested |
| Sc1ncnc2nc[nH]c12 [6-Mercaptopurine, reference compound] | 0.3 | 2.3 |  |  |  |
| O=c1[nH]c(=O)n([C@@H]2O[C@H](CO)[C@@H](O)[C@H]2O)cc1F [Example 5-FU, 5-Fluorouridine, reference compound] |  |  | 0.61 | 4.96 | dose-efficacy profile (L 1210 leukemia; i.p. once daily, weekly cycles, day 0 (+1 h)-day +41, FIG. 2): very narrow dose-efficacy profile; survival rates on increasing the dose (L 1210 leukemia; i.p., from 2×10/5×0.1 to 2×10/5×0.3 mg kg^-1 day^-1 or even higher doses, FIG. 2): reduced survival rates |
| COc1cccc2c1C(=O)c1c(O)c3c(c(O)c1C2=O)C[C@@](O)(C(=O)CO)C[C@@H]3O[C@H]1C[C@H](N)[C@H](O)[C@H](C)O1 [Doxorubicin, reference compound] | 1.7 | 50 |  |  |  |
| CCCCCCCCCCCCSCC(COP(=O)(O)OC[C@H]1O[C@@H](n2cc(F)c(=O)[nH]c2=O)[C@H](O)[C@@H]1O)OCCCCCCCCCC (some centres unmarked) [Example 5-FU-DMDOPE, (5-Fluorouridine) -5'-phosphoric acid (3-dodecylmercapto 2 decyloxy) propyl ester] |  |  | 372 | 1180 | Bone marrow toxicity CFU-E, ratio to 5-FU [1, 7]: 610 ×; less toxic on erythrocyte bone marrow stem cells compared to 5-FU ([1]; CFU-E): 610 times; toxicity on bone marrow cells compared to 5-FU ([1]; in words, CFU-E and CFU-GM): much less toxic on bone marrow cells; therapeutic index/ratio compared to 5-FU (L 1210 leukemia; concluded from efficacy (FIGS. 1 and 2) and bone marrow toxicity): much higher therapeutic index/ratio; survival time compared to control I and II (L 1210 leukemia; i.p. once daily, weekly cycles, day 0 (+1 h)-day +41, FIG. 1): clear dose-dependent increase in survival time; efficacy compared to 5-FU (L 1210 leukemia; leukemia model, equimolar doses, FIGS. 1 and 2): clearly more effective; Bone marrow toxicity CFU-GM, ratio to 5-FU [2, 7]: 238 ×; less toxic on granulocyte/macrophage bone marrow stem cells compared to 5-FU ([2]; CFU-GM): 238 times |

— US6025343A, “Lipid esters of nucleoside monophosphates and their use as immunosuppressive drugs” (Roche Diagnostics GmbH, priority 1994, dated 2000)
